# Data as given in US20250135020A1, “METHODS FOR TREATING NON-MUSCLE INVASIVE BLADDER CANCER (NMIBC) WITH ANTIBODY DRUG CONJUGATES (ADC) THAT BIND TO 191P4D12 PROTEINS” (priority 2021, published 2025).
# Non-standard residues stand in square brackets, D forms with d. Residues, ends and D or L forms follow the SMILES beside them. *: point of attachment. Dolaproine = CO[C@@H]([C@@H]1CCCN1)[C@@H](C)C(=O)O; Dil = CC[C@H](C)[C@H](NC)[C@@H](CC(=O)O)OC; X1 = C[C@@H](N*)[C@@H](O)c1ccccc1; NMeV = CN[C@H](C(=O)O)C(C)C
# Test system: Nectin-4 overexpressing bladder carcinoma cells (UM-UC-3-hNectin-4+)
# Assay: In vitro cytotoxic activity under conditions that mimic intravesical dosing (Cell TiterGlo)
# Assay type: cell-based, human
# Details: UM-UC-3-hNectin-4+ cells; 2 h exposure then wash out vs 96 h; cell death by Cell TiterGlo
# Protocol: To assess cytotoxic activity of EV in vitro under conditions that mimic intravesical dosing, Nectin-4 overexpressing bladder carcinoma cells (UM-UC-3-hNectin-4^+) were exposed to either EV, unconjugated anti-Nectin-4 antibody, unconjugated MMAE, or control ADC (FIG. 2). IV dosing was modeled by exposing the cells for 96 hours. Intravesical dosing was modeled with exposures of 2 and 24 hours followed by test article wash out. Cell death was measured using Cell TiterGlo® (Promega Corporation, Madison, WI, USA).
structure (smiles),measurement,value
"CC[C@H](C)[C@@H]([C@@H](CC(=O)N1CCC[C@H]1[C@H](OC)[C@@H](C)C(=O)N[C@H](C)[C@@H](O)c1ccccc1)OC)N(C)C(=O)[C@@H](NC(=O)[C@@H](NC)C(C)C)C(C)C [unconjugated MMAE, monomethyl auristatin E] (H-[NMeV]V[Dil][Dolaproine]-X1)",Decrease in potency (EC90) on decreasing the exposure from 96 to 2 hours,44 fold
